{"source": "paper PMC9621234", "about": "“Ligand-based discovery of coronavirus main protease inhibitors using MACAW molecular embeddings” (Journal of Enzyme Inhibition and Medicinal Chemistry, 2022)", "key": {"SARS-CoV-2 M^pro": {"target": "T1, SARS-CoV-2 M^pro (Severe acute respiratory syndrome coronavirus 2, UniProt P0DTD1)", "T1 construct": "in vitro FRET-based assay using recombinant M^pro; purchased Beyotime P0315M", "assay": "biochemical", "settings": "for inhibition curve, in words: 0.01-20 μM; for change of inhibition results upon addition of detergent: 0.1% Triton X-100, aggregation control"}, "MRC-5 cells": {"test_system": "MRC-5 cells", "assay": "Cytotoxicity, MTT test", "settings": "72 h, 100 to 3.12 μg/mL"}, "[1]": {"test_system": "Human coronavirus hCoV-229", "assay_type": "cell-based"}, "HCoV 229E": {"test_system": "HCoV 229E", "assay": "Viral titres (TCID50) in MRC-5 cells", "settings": "MRC-5, 72 h, different concentrations"}, "[2]": {"settings": "IC50, Figure 2 panels a-k, dose-response curve, mean ± SEM, n = 3"}, "[3]": {"settings": "Figure 2 panels a-k, dose-response curve, mean ± SEM, n = 3, read-out: IC50"}, "[4]": {"settings": "Figure 2(l), Trial 1, read-out: IC50"}, "[5]": {"settings": "Figure 2(l), Trial 2, read-out: IC50"}, "[6]": {"settings": "Figure 2(l), With Triton-X100, read-out: IC50"}, "[7]": {"settings": "Figure 4, With Triton-X100 (0.1%), unit inferred, read-out: IC50"}, "[8]": {"settings": "Figure 4, Without Triton-X100, unit inferred, read-out: IC50"}}, "note": "Like-named read-outs stand apart in the source and are kept apart here.", "data": [{"smiles": "Cc1ccc(-c2oc3ccccc3c(=O)c2O)cc1", "note": "[Compound 2]", "values": [{"measurement": "inhibition curve, in words", "setting": "SARS-CoV-2 M^pro", "value": "atypical inhibition results"}]}, {"smiles": "c1ccc(Sc2ncnc3c2oc2ccccc23)cc1", "note": "[Compound 6]", "values": [{"measurement": "IC50", "setting": "SARS-CoV-2 M^pro; [2]", "value": "4980 ± 1280", "unit": "nM"}]}, {"smiles": "Nc1nnc(Sc2ncc([N+](=O)[O-])s2)s1", "note": "[Compound 9, halicin]", "values": [{"measurement": "cellular toxicity (cell viability)", "setting": "MRC-5 cells", "value": "toxic"}, {"measurement": "change of inhibition results upon addition of detergent", "setting": "SARS-CoV-2 M^pro", "value": "did not change significantly"}, {"measurement": "IC50", "setting": "SARS-CoV-2 M^pro; IC50", "value": 420, "unit": "nM"}, {"measurement": "IC50", "setting": "SARS-CoV-2 M^pro; IC50, Figure 2(l), Trial 1", "value": 420, "unit": "nM"}, {"measurement": "IC50", "setting": "SARS-CoV-2 M^pro; IC50, Figure 2(l), Trial 2", "value": 419, "unit": "nM"}, {"measurement": "IC50", "setting": "SARS-CoV-2 M^pro; [2]", "value": "420 ± 49", "unit": "nM"}, {"measurement": "IC50", "setting": "SARS-CoV-2 M^pro; IC50, Figure 4, With Triton-X100 (0.1%), unit inferred", "value": "461 ± 81", "unit": "nM"}]}, {"smiles": "Cc1ccc(-n2c(/C=C/c3ccc([N+](=O)[O-])cc3)nc3ccccc3c2=O)cc1", "note": "[Compound 3]", "values": [{"measurement": "IC50", "setting": "SARS-CoV-2 M^pro; [3]", "value": "38300 ± 18300", "unit": "nM"}]}, {"smiles": "[O-][n+]1ccccc1SSc1cccc[n+]1[O-]", "note": "[Compound 8, dipyrithione]", "values": [{"measurement": "cellular toxicity (cell viability)", "setting": "MRC-5 cells", "value": "limited toxicity"}, {"measurement": "change of inhibition results upon addition of detergent", "setting": "SARS-CoV-2 M^pro", "value": "did not change significantly"}, {"measurement": "IC50", "setting": "SARS-CoV-2 M^pro; [4]", "value": 172, "unit": "nM"}, {"measurement": "IC50", "setting": "SARS-CoV-2 M^pro; [5]", "value": 171, "unit": "nM"}, {"measurement": "IC50", "setting": "SARS-CoV-2 M^pro; [6]", "value": 266, "unit": "nM"}, {"measurement": "IC50", "setting": "SARS-CoV-2 M^pro; [3]", "value": "172 ± 25", "unit": "nM"}, {"measurement": "IC50", "setting": "SARS-CoV-2 M^pro; [7]", "value": "285 ± 38", "unit": "nM"}, {"measurement": "IC50", "setting": "SARS-CoV-2 M^pro; [8]", "value": "173 ± 23", "unit": "nM"}, {"measurement": "IC50", "setting": "SARS-CoV-2 M^pro; read-out: IC50", "value": 180, "unit": "nM"}]}, {"smiles": "O=c1sc2ccccc2n1Cc1ccccc1", "note": "[Compound 7, 3-benzyl-1,3-benzothiazol-2-one]", "values": [{"measurement": "cellular toxicity (cell viability)", "setting": "MRC-5 cells", "value": "minimal toxicity"}, {"measurement": "effect on cytopathogenic effect (CPE) of the virus", "setting": "[1]; across all the viral doses tested, MRC-5, 72 h", "value": "very significant reduction in CPE"}, {"measurement": "inhibition curve, in words", "setting": "SARS-CoV-2 M^pro", "value": "atypical inhibition results"}, {"measurement": "change of inhibition results upon addition of detergent", "setting": "SARS-CoV-2 M^pro", "value": "did not change significantly"}, {"measurement": "IC50", "setting": "SARS-CoV-2 M^pro; IC50, Figure 2(l), Trial 1", "value": 174, "unit": "nM"}, {"measurement": "IC50", "setting": "SARS-CoV-2 M^pro; IC50, Figure 2(l), Trial 2", "value": 179, "unit": "nM"}, {"measurement": "IC50", "setting": "SARS-CoV-2 M^pro; IC50, Figure 2(l), With Triton-X100", "value": 241, "unit": "nM"}, {"measurement": "potency, in words", "setting": "SARS-CoV-2 M^pro; at low concentrations, fluorescent signal increased at high compound concentrations", "value": "highly potent"}, {"measurement": "effect on viral titres (TCID50)", "setting": "HCoV 229E", "value": "substantial reduction in the viral load"}]}, {"smiles": "c1ccc2sc(SSc3nc4ccccc4s3)nc2c1", "note": "[Compound 1]", "values": [{"measurement": "cellular toxicity (cell viability)", "setting": "MRC-5 cells", "value": "minimal toxicity"}, {"measurement": "effect on cytopathogenic effect (CPE) of the virus", "setting": "[1]", "value": "some reduction in CPE"}, {"measurement": "effect on cytopathogenic effect (CPE) of the virus", "setting": "[1]; high multiplicity of infection (high viral load), MRC-5, 72 h", "value": "no inhibitory effect"}, {"measurement": "change of inhibition results upon addition of detergent", "setting": "SARS-CoV-2 M^pro", "value": "did not change significantly"}, {"measurement": "IC50", "setting": "SARS-CoV-2 M^pro; [4]", "value": 714, "unit": "nM"}, {"measurement": "IC50", "setting": "SARS-CoV-2 M^pro; [5]", "value": 768, "unit": "nM"}, {"measurement": "IC50", "setting": "SARS-CoV-2 M^pro; [6]", "value": 622, "unit": "nM"}, {"measurement": "IC50", "setting": "SARS-CoV-2 M^pro; [3]", "value": "714 ± 182", "unit": "nM"}, {"measurement": "IC50", "setting": "SARS-CoV-2 M^pro; [7]", "value": "625 ± 102", "unit": "nM"}, {"measurement": "IC50", "setting": "SARS-CoV-2 M^pro; [8]", "value": "786 ± 151", "unit": "nM"}, {"measurement": "IC50", "setting": "SARS-CoV-2 M^pro; read-out: IC50", "value": 710, "unit": "nM"}]}, {"smiles": "Nc1nnc(Sc2ccc([N+](=O)[O-])cn2)s1", "note": "[Compound 4]", "values": [{"measurement": "IC50", "setting": "SARS-CoV-2 M^pro; [2]", "value": "6220 ± 1790", "unit": "nM"}]}, {"smiles": "O=C1C2C3C=CC(C3)C2C(=O)C2C3C=CC(C3)C12", "note": "(centres unmarked) [Compound 5]", "values": [{"measurement": "IC50", "setting": "SARS-CoV-2 M^pro; [2]", "value": "9790 ± 1450", "unit": "nM"}]}]}
